Results: patent publication US8030478B2, “Method for nucleic acid replication and novel artificial base pairs” (priority 2005, dated 2011)
Where two headings read alike, the source gives them in different places.

Target: T7 RNA polymerase (Escherichia phage T7, UniProt P00573)
Conditions: for Composition of nucleotide incorporated as 5′ neighbor of U: Ap / Composition of nucleotide incorporated as 5′ neighbor of U: Gp / Composition of nucleotide incorporated as 5′ neighbor of U: Np (Dsp) / Composition of nucleotide incorporated as 5′ neighbor of U: Up / Composition of nucleotide incorporated as 5′ neighbor of U: Cp: [α-32P]UTP; for Composition of nucleotide incorporated as 5′ neighbor of A: Up / Composition of nucleotide incorporated as 5′ neighbor of A: Np (Dsp) / Composition of nucleotide incorporated as 5′ neighbor of A: Ap / Composition of nucleotide incorporated as 5′ neighbor of A: Gp / Composition of nucleotide incorporated as 5′ neighbor of A: Cp: [α-32P]ATP; for Composition of nucleotide incorporated as 5′ neighbor of A: Cp: theoretical [7]
[1] = Entry 14, template temp35Pa-4, natural NTP 1 mM, Ds 1 mM, theoretical [0]
[2] = Entry 14, template temp35Pa-4, natural NTP 1 mM, Ds 1 mM, theoretical [1]
[3] = Entry 15, template temp35Pa-4, natural NTP 1 mM, Ds 3 mM, theoretical [0]
[4] = Entry 15, template temp35Pa-4, natural NTP 1 mM, Ds 3 mM, theoretical [1]
[5] = Entry 16, template temp35Pa′-4, natural NTP 1 mM, Ds 1 mM, theoretical [0]
[6] = Entry 16, template temp35Pa′-4, natural NTP 1 mM, Ds 1 mM, theoretical [1]
[7] = Entry 17, template temp35Pa′-4, natural NTP 1 mM, Ds 3 mM, theoretical [0]
[8] = Entry 17, template temp35Pa′-4, natural NTP 1 mM, Ds 3 mM, theoretical [1]
[9] = Entry 18, template temp35C-4, natural NTP 1 mM, Ds 1 mM, theoretical [0]
[10] = Entry 18, template temp35C-4, natural NTP 1 mM, Ds 1 mM, theoretical [1]
[11] = Entry 19, template temp35C-4, natural NTP 1 mM, Ds 3 mM, theoretical [0]
[12] = Entry 19, template temp35C-4, natural NTP 1 mM, Ds 3 mM, theoretical [1]
[13] = Entry 20, template temp35T-4, natural NTP 1 mM, Ds 1 mM, theoretical [0]
[14] = Entry 20, template temp35T-4, natural NTP 1 mM, Ds 1 mM, theoretical [1]
[15] = Entry 21, template temp35T-4, natural NTP 1 mM, Ds 3 mM, theoretical [0]
[16] = Entry 21, template temp35T-4, natural NTP 1 mM, Ds 3 mM, theoretical [1]
[17] = Entry 29, template DNA14, natural NTP 2 mM, Ds 2 mM, theoretical [6]
[18] = Entry 31, template DNAcont4, natural NTP 2 mM, Ds 2 mM, theoretical [6]
[19] = Entry 36, template DNA13, natural NTP 2 mM, Ds 2 mM, theoretical [4]
[20] = Entry 37, template DNA14, natural NTP 2 mM, Ds 2 mM, theoretical [4]
[21] = Entry 39, template DNAcont4, natural NTP 2 mM, Ds 2 mM, theoretical [4]

T7 RNA polymerase, sequence (P00573 whole entry): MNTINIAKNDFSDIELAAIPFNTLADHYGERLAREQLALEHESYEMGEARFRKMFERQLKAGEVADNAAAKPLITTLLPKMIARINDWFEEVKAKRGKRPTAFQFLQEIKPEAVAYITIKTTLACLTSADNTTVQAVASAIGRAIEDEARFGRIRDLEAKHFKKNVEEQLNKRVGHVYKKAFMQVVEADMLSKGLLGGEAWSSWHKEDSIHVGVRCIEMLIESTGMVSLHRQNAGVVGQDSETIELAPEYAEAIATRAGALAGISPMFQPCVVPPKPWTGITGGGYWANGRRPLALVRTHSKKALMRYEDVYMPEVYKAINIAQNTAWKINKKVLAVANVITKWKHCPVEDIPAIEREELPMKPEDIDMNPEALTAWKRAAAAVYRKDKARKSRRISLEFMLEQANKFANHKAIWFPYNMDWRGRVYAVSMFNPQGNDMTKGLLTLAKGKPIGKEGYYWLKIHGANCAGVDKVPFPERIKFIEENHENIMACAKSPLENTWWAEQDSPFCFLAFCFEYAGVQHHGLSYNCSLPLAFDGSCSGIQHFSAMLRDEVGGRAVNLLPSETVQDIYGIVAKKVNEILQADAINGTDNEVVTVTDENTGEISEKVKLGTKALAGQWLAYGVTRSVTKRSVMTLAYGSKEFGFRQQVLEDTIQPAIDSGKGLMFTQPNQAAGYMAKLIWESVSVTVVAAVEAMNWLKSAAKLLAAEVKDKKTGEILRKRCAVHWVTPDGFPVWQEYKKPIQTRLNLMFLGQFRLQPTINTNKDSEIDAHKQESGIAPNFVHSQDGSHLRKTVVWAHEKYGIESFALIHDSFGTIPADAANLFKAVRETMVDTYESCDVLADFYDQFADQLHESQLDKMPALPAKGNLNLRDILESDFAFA
Method: Transcription (20 μl) was accomplished in 40 mM Tris-HCl buffer (pH 8.0) containing 24 mM MgCl2, 2 mM spermidine, 5 mM DTT, 0.01% Triton X-100, 1-3 mM each natural NTP, 0-3 mM Pa′TP, 0-3 mM DsTP, 10 mM GMP, 2 μM template DNA (for 17-mer transcript synthesis) or 0.5 μM template DNA (for tRNA transcript synthesis), and 2.5 units/μl T7 RNA polymerase (TAKARA). […] For nucleotide composition analysis in transcripts (Non-patent Documents 17 and 33), the transcripts were internally labeled with 2 μCi [α-^32P]UTP or [α-^32P]ATP (Amersham). After the transcription, the products were digested with 0.75 units of RNase T2 at 37° C. for 2 hours in 10 μl of 15 mM sodium acetate buffer (pH 4.5). For 17-mer analysis, 0.05 A260 units of E. coli tRNA (Sigma) was added to the digestion reaction solution. The digestion products were analyzed by 2D-TLC (HPTLC plate, 100×100 mm, Merck). The developing solvents used for the first and second dimensions were isobutyric acid-ammonia-water (66:1:33 v/v/v) and isopropyl alcohol-HCl-water (70:15:15 v/v/v or 75:15:10 v/v/v for Pa′ transcripts), respectively. Spots of the labeled nucleotides on the TLC plate were analyzed with a bio-imaging analyzer.
The internally ^32P-labeled transcripts were digested with Rnase T2, and the resulting labeled nucleoside 3′-monophosphates were analyzed by 2D thin-layer chromatography (2D-TLC).

O=P(O)(O)OP(=O)(O)OP(=O)(O)OC[C@H]1O[C@@H](n2cnc3c(-c4cccs4)ccnc32)[C@H](O)[C@@H]1O [DsTP, 7-(2-Thienyl)-3-(β-D-ribofuranosyl)-3H-imidazo[4,5-b]pyridine 5′-triphosphate]
Composition of nucleotide incorporated as 5′ neighbor of U: Ap [1]: 0.02 [0]
Composition of nucleotide incorporated as 5′ neighbor of U: Gp [1]: n.d. [0]
Composition of nucleotide incorporated as 5′ neighbor of U: Np (Dsp) [2]: 0.98 [1]
Composition of nucleotide incorporated as 5′ neighbor of U: Up [2]: 1.00 [1]
Composition of nucleotide incorporated as 5′ neighbor of U: Cp (Entry 14, template temp35Pa-4, natural NTP 1 mM, Ds 1 mM, theoretical [2]): 1.99 [2]
Composition of nucleotide incorporated as 5′ neighbor of U: Ap [3]: 0.01 [0]
Composition of nucleotide incorporated as 5′ neighbor of U: Gp [3]: n.d. [0]
Composition of nucleotide incorporated as 5′ neighbor of U: Np (Dsp) [4]: 0.99 [1]
Composition of nucleotide incorporated as 5′ neighbor of U: Up [4]: 1.01 [1]
Composition of nucleotide incorporated as 5′ neighbor of U: Cp (Entry 15, template temp35Pa-4, natural NTP 1 mM, Ds 3 mM, theoretical [2]): 1.99 [2]
Composition of nucleotide incorporated as 5′ neighbor of U: Ap [5]: 0.05 [0]
Composition of nucleotide incorporated as 5′ neighbor of U: Gp [5]: n.d. [0]
Composition of nucleotide incorporated as 5′ neighbor of U: Np (Dsp) [6]: 0.94 [1]
Composition of nucleotide incorporated as 5′ neighbor of U: Up [6]: 1.02 [1]
Composition of nucleotide incorporated as 5′ neighbor of U: Cp (Entry 16, template temp35Pa′-4, natural NTP 1 mM, Ds 1 mM, theoretical [2]): 1.98 [2]
Composition of nucleotide incorporated as 5′ neighbor of U: Ap [7]: 0.02 [0]
Composition of nucleotide incorporated as 5′ neighbor of U: Gp [7]: n.d. [0]
Composition of nucleotide incorporated as 5′ neighbor of U: Np (Dsp) [8]: 0.96 [1]
Composition of nucleotide incorporated as 5′ neighbor of U: Up [8]: 1.02 [1]
Composition of nucleotide incorporated as 5′ neighbor of U: Cp (Entry 17, template temp35Pa′-4, natural NTP 1 mM, Ds 3 mM, theoretical [2]): 1.99 [2]
Composition of nucleotide incorporated as 5′ neighbor of U: Ap [9]: 0.01 [0]
Composition of nucleotide incorporated as 5′ neighbor of U: Np (Dsp) [9]: n.d. [0]
Composition of nucleotide incorporated as 5′ neighbor of U: Gp [10]: 0.98 [1]
Composition of nucleotide incorporated as 5′ neighbor of U: Up [10]: 1.00 [1]
Composition of nucleotide incorporated as 5′ neighbor of U: Cp (Entry 18, template temp35C-4, natural NTP 1 mM, Ds 1 mM, theoretical [2]): 2.01 [2]
Composition of nucleotide incorporated as 5′ neighbor of U: Ap [11]: 0.01 [0]
Composition of nucleotide incorporated as 5′ neighbor of U: Np (Dsp) [11]: n.d. [0]
Composition of nucleotide incorporated as 5′ neighbor of U: Gp [12]: 0.97 [1]
Composition of nucleotide incorporated as 5′ neighbor of U: Up [12]: 1.00 [1]
Composition of nucleotide incorporated as 5′ neighbor of U: Cp (Entry 19, template temp35C-4, natural NTP 1 mM, Ds 3 mM, theoretical [2]): 2.03 [2]
Composition of nucleotide incorporated as 5′ neighbor of U: Gp [13]: n.d. [0]
Composition of nucleotide incorporated as 5′ neighbor of U: Np (Dsp) [13]: n.d. [0]
Composition of nucleotide incorporated as 5′ neighbor of U: Ap [14]: 0.99 [1]
Composition of nucleotide incorporated as 5′ neighbor of U: Up [14]: 1.02 [1]
Composition of nucleotide incorporated as 5′ neighbor of U: Cp (Entry 20, template temp35T-4, natural NTP 1 mM, Ds 1 mM, theoretical [2]): 1.99 [2]
Composition of nucleotide incorporated as 5′ neighbor of U: Gp [15]: n.d. [0]
Composition of nucleotide incorporated as 5′ neighbor of U: Np (Dsp) [15]: n.d. [0]
Composition of nucleotide incorporated as 5′ neighbor of U: Ap [16]: 0.99 [1]
Composition of nucleotide incorporated as 5′ neighbor of U: Up [16]: 1.01 [1]
Composition of nucleotide incorporated as 5′ neighbor of U: Cp (Entry 21, template temp35T-4, natural NTP 1 mM, Ds 3 mM, theoretical [2]): 2.00 [2]
Composition of nucleotide incorporated as 5′ neighbor of A: Up (Entry 28, template DNA13, natural NTP 2 mM, Ds 2 mM, theoretical [0]): 0.05 [0]
Composition of nucleotide incorporated as 5′ neighbor of A: Np (Dsp) (Entry 28, template DNA13, natural NTP 2 mM, Ds 2 mM, theoretical [1]): 0.96 [1]
Composition of nucleotide incorporated as 5′ neighbor of A: Ap (Entry 28, template DNA13, natural NTP 2 mM, Ds 2 mM, theoretical [5]): 5.04 [5]
Composition of nucleotide incorporated as 5′ neighbor of A: Gp (Entry 28, template DNA13, natural NTP 2 mM, Ds 2 mM, theoretical [6]): 6.02 [6]
Composition of nucleotide incorporated as 5′ neighbor of A: Cp (Entry 28, template DNA13, natural NTP 2 mM, Ds 2 mM): 6.93 [7]
Composition of nucleotide incorporated as 5′ neighbor of A: Up (Entry 29, template DNA14, natural NTP 2 mM, Ds 2 mM, theoretical [0]): 0.03 [0]
Composition of nucleotide incorporated as 5′ neighbor of A: Np (Dsp) (Entry 29, template DNA14, natural NTP 2 mM, Ds 2 mM, theoretical [1]): 0.96 [1]
Composition of nucleotide incorporated as 5′ neighbor of A: Ap [17]: 6.13 [6]
Composition of nucleotide incorporated as 5′ neighbor of A: Gp [17]: 5.96 [6]
Composition of nucleotide incorporated as 5′ neighbor of A: Cp (Entry 29, template DNA14, natural NTP 2 mM, Ds 2 mM): 6.93 [7]
Composition of nucleotide incorporated as 5′ neighbor of A: Np (Dsp) (Entry 31, template DNAcont4, natural NTP 2 mM, Ds 2 mM, theoretical [0]): 0.02 [0]
Composition of nucleotide incorporated as 5′ neighbor of A: Up (Entry 31, template DNAcont4, natural NTP 2 mM, Ds 2 mM, theoretical [1]): 1.09 [1]
Composition of nucleotide incorporated as 5′ neighbor of A: Ap [18]: 6.10 [6]
Composition of nucleotide incorporated as 5′ neighbor of A: Gp [18]: 5.98 [6]
Composition of nucleotide incorporated as 5′ neighbor of A: Cp (Entry 31, template DNAcont4, natural NTP 2 mM, Ds 2 mM): 6.83 [7]
Composition of nucleotide incorporated as 5′ neighbor of U: Np (Dsp) (Entry 36, template DNA13, natural NTP 2 mM, Ds 2 mM, theoretical [0]): n.d. [0]
Composition of nucleotide incorporated as 5′ neighbor of U: Ap (Entry 36, template DNA13, natural NTP 2 mM, Ds 2 mM, theoretical [2]): 2.00 [2]
Composition of nucleotide incorporated as 5′ neighbor of U: Gp [19]: 3.97 [4]
Composition of nucleotide incorporated as 5′ neighbor of U: Up [19]: 4.03 [4]
Composition of nucleotide incorporated as 5′ neighbor of U: Cp (Entry 36, template DNA13, natural NTP 2 mM, Ds 2 mM, theoretical [5]): 4.99 [5]
Composition of nucleotide incorporated as 5′ neighbor of U: Np (Dsp) (Entry 37, template DNA14, natural NTP 2 mM, Ds 2 mM, theoretical [0]): 0.01 [0]
Composition of nucleotide incorporated as 5′ neighbor of U: Ap (Entry 37, template DNA14, natural NTP 2 mM, Ds 2 mM, theoretical [2]): 1.99 [2]
Composition of nucleotide incorporated as 5′ neighbor of U: Cp [20]: 4.02 [4]
Composition of nucleotide incorporated as 5′ neighbor of U: Gp [20]: 3.91 [4]
Composition of nucleotide incorporated as 5′ neighbor of U: Up [20]: 4.08 [4]
Composition of nucleotide incorporated as 5′ neighbor of U: Np (Dsp) (Entry 39, template DNAcont4, natural NTP 2 mM, Ds 2 mM, theoretical [0]): 0.01 [0]
Composition of nucleotide incorporated as 5′ neighbor of U: Ap (Entry 39, template DNAcont4, natural NTP 2 mM, Ds 2 mM, theoretical [2]): 1.99 [2]
Composition of nucleotide incorporated as 5′ neighbor of U: Gp [21]: 3.95 [4]
Composition of nucleotide incorporated as 5′ neighbor of U: Up [21]: 4.05 [4]
Composition of nucleotide incorporated as 5′ neighbor of U: Cp (Entry 39, template DNAcont4, natural NTP 2 mM, Ds 2 mM, theoretical [5]): 5.01 [5]
